Bounds are passed on as bounds.

For one assay, the target named is Coagulation factor X (Homo sapiens, UniProt P00742). The experiment in a line: Inhibitory concentration against human Coagulation factor X.
Another assay addresses T1, Coagulation factor VII (Homo sapiens, UniProt P08709).
T1 sequence (P08709 whole entry): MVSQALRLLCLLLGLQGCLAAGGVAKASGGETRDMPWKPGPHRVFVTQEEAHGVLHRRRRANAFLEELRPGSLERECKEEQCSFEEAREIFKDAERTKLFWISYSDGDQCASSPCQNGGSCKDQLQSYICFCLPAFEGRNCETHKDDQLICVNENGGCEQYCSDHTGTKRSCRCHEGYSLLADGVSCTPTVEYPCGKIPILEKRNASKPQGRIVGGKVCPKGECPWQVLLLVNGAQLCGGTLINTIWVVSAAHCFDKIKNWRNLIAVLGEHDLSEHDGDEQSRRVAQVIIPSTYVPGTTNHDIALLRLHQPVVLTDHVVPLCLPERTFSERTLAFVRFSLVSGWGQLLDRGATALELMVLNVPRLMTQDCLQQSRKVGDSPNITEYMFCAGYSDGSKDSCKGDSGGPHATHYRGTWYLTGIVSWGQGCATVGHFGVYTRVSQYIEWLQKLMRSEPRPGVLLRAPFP
The experiment in a line: Inhibitory concentration against recombinant human coagulation factor VII.

A further assay deals with Prothrombin (Homo sapiens, UniProt P00734). In words: Inhibitory concentration against human thrombin.

Sequence of Coagulation factor X (P00742 41-179 limits assumed): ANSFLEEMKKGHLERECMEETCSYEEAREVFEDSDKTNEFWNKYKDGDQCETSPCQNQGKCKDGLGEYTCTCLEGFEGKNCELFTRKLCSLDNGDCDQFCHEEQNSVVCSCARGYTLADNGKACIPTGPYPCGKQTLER
Sequence of Coagulation factor X (P00742 235-488 limits assumed): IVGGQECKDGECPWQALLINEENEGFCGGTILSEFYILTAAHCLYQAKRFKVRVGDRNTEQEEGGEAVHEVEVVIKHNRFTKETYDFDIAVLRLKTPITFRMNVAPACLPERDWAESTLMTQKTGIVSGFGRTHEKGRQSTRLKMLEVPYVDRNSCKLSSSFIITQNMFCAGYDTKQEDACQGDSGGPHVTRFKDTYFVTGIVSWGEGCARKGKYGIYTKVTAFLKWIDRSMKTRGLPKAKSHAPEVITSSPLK

For `CC(C)Nc1ccc(-c2cc(N)cc(C(=O)O)c2)n(CC(=O)NCc2ccc(C(=N)N)cc2)c1=O`, the IC50 is greater than 30000 nM at Coagulation factor X, 118 nM on Coagulation factor VII and greater than 30000 nM on Prothrombin.
As for `CC(C)Nc1ccc(-c2cc(N)cc(N)c2)n(CC(=O)NCc2ccc(C(=N)N)cc2)c1=O`, the IC50 on Coagulation factor VII was determined as 52 nM.

For orientation: IC50 means the midpoint of a concentration-inhibition curve.

The values are drawn from ChEMBL document CHEMBL1145137, “Design, synthesis, and crystal structure of selective 2-pyridone tissue factor VIIa inhibitors” (J Med Chem, 2003).
